Results taken from US5563142A, “Diaromatic substituted compounds as anti-HIV-1 agents” (The Upjohn Company, priority 1994, dated 1996).

What was measured:
[1] = biological target: T1, viral reverse transcriptase (Human immunodeficiency virus type 1 group M subtype B, UniProt P04585); experiment: Viral reverse transcriptase inhibition, cell free assay; format: biochemical, human immunodeficiency virus (HIV-1); conditions: poly rC or poly rG template; for inhibition at 100 µM: read-out: RT % INHIBITION (100 μM), 100 μM
T1 construct: Viral reverse transcriptase is found in extracts from bacterial clones; made in house; host or cells: Escherichia coli (extracts of bacterial clones, by the procedure of Larder et al., EMBO J. 6:3133-3137, 1987)
Excerpt: The utility of the diaromatic substituted piperazines (III), the anti-AIDS piperazines (IV) and the indoles (V) of this invention can be determined by their ability to inhibit viral reverse transcriptase, an enzyme essential for human immunodeficiency virus replication. This enzyme has characteristics which differentiate it from other known cellular polymerases and it is a unique enzyme which is not found in uninfected cells. Viral reverse transcriptase is found in extracts from bacterial clones prepared according to the procedure described in AIDS Virus Reverse Transcriptase defined by high level expression in Escherichia coli, EMBO J. 6:3133-3137 (1987). Inhibition of this enzyme is determined in a cell free assay which measures the level of radioactive precursors incorporated into DNA. Extracts prepared according to the procedure of Science, 1125-1129 (1981) are incubated in a mixture of inhibitor, 20 mM dithiothreitol, 60 mM sodium chloride, 0.05% NP-40, 10 mM magnesium chloride, 50 mM Tris pH 8.3, 10 μM [^35 S]-labeled deoxynuleoside-5'-triphosphate, 10 μg/ml RNA template (poly rC or poly rG) and 5 μg/ml DNA primer (oligo dG or oligo dT) for 30 minutes at 37° C. Incorporation of radio-labeled percursor is determined by spotting aliquots of the reaction mixture on DE81 paper, washing the papers to remove unincorporated percursor, drying and determining counts. The results (IC50 means the concentration, in μM of drug, required to inhibit the reverse transcriptase activity to the extent of 50%) of various assay(s) are combined and reported as % inhibition and IC50 (calculated).
^1 Viral reverse transcriptase is found in extracts from bacterial
clones prepared according to the procedure described by Larder, B.,
Purifoy D., Powell, K. and Darby, G., AIDS virus reverse transcriptase
defined by high level expression in Escherichia coli., EMBO J. 6,
3133-3137 (1987). Inhibition of this enzyme is determined in a cell free
assay which measures the level of radioactive precursors incorporated int
DNA. Extracts prepared according to the procedure of Kleid, D. G., et
al., Science, 1125-1129 (1981) are incubated in a mixture of inhibitor, 2
mM dithiothreitol, 60 mM sodium chloride, 0.05% NP40, 10 mM magnesium
chloride, 50 mM Tris pH 8.3, 10 μM [^35 Slabeled
deoxynucleoside5triphosphate, 10 μg/ml RNA template (poly rC or poly
rG) and 5 μg/ml DNA primer (oligo dG or oligo dT) for 15 minutes at
37°. Incorporation of radio labeled precursor is determined by
harvesting the trichloroacetic acid precipitated reaction mixtures on
glass fiber filters, drying, and determining counts. The results of
various assays are combined and reported as % inhibition at a 100 μM

[2] = test system: HIV in primary human peripheral blood lymphocytes; experiment: Primary PBL assay: inhibition of viral replication (p24 & RNA); format: cell-based; conditions: Human immunodeficiency virus 1, Lymphocyte, primary human lymphocytes infected with HIV, days three and four, read-out: PBL INHIBITION OF VIRAL REPLICATION (p24 & RNA) ED50
Description: ^3 The utility of the compounds of the invention is further
infection in primary peripheral blood lymphocytes (primary PBL assay). Th
primary PBL assay offers the following advantages:
(a) The assays are performed with primary human lymphocytes. Thereby,
undesired testing of transformed cell lines is avoided in which host cell
and virus may have undergone processes of mutual adaptation. Performance
of cell culture in serum containing media closely mimics the in vivo
situation. (b) The primary PBL assay distinguishes between true antiviral
effect which is due to the drug and cytostatic/cytotoxic reactions. (c)
Viral replication is precisely followed by kinetic measurement of viral
nucleic acids and proteins. (d) Nucleic acids (total HIVRNA intra and
extracellular) and protein (secreted p24) are measured in parallel which
permits one to differentiate between the compound's effect on virus
replication and on the expression of viral proteins. This leads to
additional information regarding the efficacy of the test compound. (e)
Tolerance of the cell culture against low amounts of organic solvents als
permits the investigation of hydrophobic substances. (f) The dose of the
drug causing half maximal suppression of virus replication is determined.
(g) The screening system is standardized and automated to a high degree.
The primary PBL assay uses the following procedure:
Effects of the compounds of the invention on cell proliferation are determined by lymphocyte proliferation assays. Starting with a 100 micromolar solution, the compound is serially diluted 10 fold. One tenth of the concentration of a compound causing half maximal inhibition of cellular proliferation is employed for all subsequent testing.
Peripheral human lymphocytes are isolated by density gradient centrifugation. After stimulation by mitogen the cells are infected with a standardized preparation of HIV. Subsequently, the infected cells are cultured in the presence of the drug for four days. Individual cultures are established to measure viral replication three and four days following infection. Untreated cells and AZT-treated cells are included as controls in parallel with the drugs under investigation.
The amount of viral core protein p24 synthesized and release by the infected cells is determined in the supernatant by the capture-ELISA technique on days three and four. By comparing with a standard preparation, the amount of protein produced by the virus infected cells is quantified.
The total amount of viral RNA synthesized by the infected lymphocytes is determined by a special nucleic acid hybridization on days three and four of culture. By including a standard preparation of HIV-RNA the amount of synthesized RNA is quantified.
In addition, viability of HIV-infected cells is determined in parallel with assays for viral p24 and RNA. In order to evaluate the half maximal antiviral effect of the drug, a concentration dependency of the drug action is measured.
Numerous examples of the compounds of the invention are assayed according to this procedure. The anti-HIV activity, as measured by the inhibition of the release of core p24 protein in HIV infected human lymphocytes, is used to calculate ED50 -antiviral (the concentration required to give a 50% reduction in p24 synthesis).

Structure (SMILES)	inhibition at 100 µM [1] [%]	EC50 [2] [nM]	RT % INHIBITION (100 μM) ([1]; 100 μM)
CC(C)Nc1cccnc1N1CCN(C(=O)c2cc3c(ccc4ccccc43)[nH]2)CC1 [Example 122, 1-[Benz[e]indolyl-2-carbonyl]-4-[3-(1-methylethylamino)-2-pyridinyl]piperazine]	84	–	–
COc1c(C)cc(C(=O)N2CCN(c3ncccc3NC(C)C)CC2)cc1C [Example 78, 1-[3,5-Dimethyl-4-methoxybenzoyl]-4-[3-(1-methylethylamino)-2-pyridinyl]piperazine]	74	–	–
COc1cccc2[nH]c(C(=O)N3CCN(c4ncccc4NC(C)C)CC3)cc12 [Example 88, 1-[4-Methoxyindolyl-2-carbonyl]-4-[3-(1-methylethylamino)-2-pyridinyl]piperazine]	56 to 88	100	–
CCC(CC)Nc1cccnc1N1CCN(C(=O)c2cc3ccccc3[nH]2)CC1 [Example 100]	81 to 82	–	–
CC(C)Nc1cccnc1N1CCN(C(=O)c2cc3cc(OCc4ccccc4)ccc3[nH]2)CC1 [Example 36, 1-[5-Benzyloxyindolyl-2-carbonyl]-4-[3-(1-methylethyl)amino-2-pyridinyl]piperazine]	69 to 84	10	–
CC(C)Nc1cccnc1N1CCN(C(=O)c2cc3ccc4ccccc4c3[nH]2)CC1 [Example 121, 1-[Benz[g]indolyl-2-carbonyl]-4-[3-(1-methylethylamino)-2-pyridinyl]piperazine]	64 to 70	–	–
CC(C)(C)Nc1ccnnc1N1CCN(C(=O)c2cc3cc(OCc4ccccc4)ccc3[nH]2)CC1 [Example 119, 1-[5-Benzyloxyindolyl-2-carbonyl]-4-[4-(1,1-dimethylethylamino)-2-pyridazinyl]piperazine]	53 to 58	–	–
COc1ccc2[nH]c(C(=O)N(C)CCN(C)c3ncccc3NC(C)C)cc2c1 [Example 107, N,N'-Dimethyl-N-(5-methoxyindolyl-2-carbonyl)-N'-[3-(1-methylethylamino)-2-pyridyl]ethylenediamine]	77 to 87	–	–
CC(C)Nc1cccnc1N1CCN(C(=O)c2cc3cc(OCC(=O)O)ccc3[nH]2)CC1 [Example 68, 1-[5-(Carboxymethoxy)indolyl-2-carbonyl]-4-[3-(1-methylethylamino)-2-pyridinyl]piperazine]	–	–	78-95%
CC(C)Nc1cccnc1N(C)CCN(C)C(=O)c1cc2cc(F)ccc2[nH]1 [Example 108, N,N'-Dimethyl-N-(5-fluoroindolyl-2-carbonyl)-N'-(3-(1-methylethylamino)-2-pyridyl)ethylenediamine]	77 to 89	–	–
CCNc1cccnc1N(C)CCCN(C)C(=O)c1cc2ccccc2[nH]1 [Example 111]	86 to 92	–	–
CC(C)Nc1cccnc1N1CCN(C(=O)c2cc3cc(OCC(=O)OCc4ccccc4)ccc3[nH]2)CC1 [Example 67, 1-[5-(Benzyloxycarbonylmethoxy)indolyl-2-carbonyl]-4-[3-(1-methylethylamino)-2-pyridinyl]piperazine]	60 to 84	–	–
CC(C)Nc1cccnc1N1CCN(C(=O)c2cc3cccnc3[nH]2)CC1 [Example 109]	56 to 82	–	–
CCNc1cccnc1N(C)CCN(C)C(=O)c1cc2ccccc2[nH]1 [Example 123, N,N'-Dimethyl-N-(indolyl-2-carbonyl)-N'-(3-ethylamino-2-pyridyl)ethylenediamine]	47 to 60	–	–
O=C(c1cc2ccccc2[nH]1)N1CCN(c2nccnc2NC2CC2)CC1 [Example 57, 1-(Indolyl-2-carbonyl)-4-(3-cyclopropylamino-2-pyrazinyl)piperazine]	52 to 65	–	–
CCNc1cccnc1N1CCN(C(=O)c2cc3cc(OCc4ccccc4)ccc3[nH]2)CC1 [Example 35, 1-[5-Benzyloxyindolyl-2-carbonyl]-4-[3-(ethylamino)-2-pyridinyl]piperazine]	57 to 70	–	–
CC(C)(C)Nc1ccnnc1N1CCN(C(=O)c2cc3cc(O)ccc3[nH]2)CC1 [Example 120, 1-[5-Hydroxyindolyl-2-carbonyl]-4-[4-(1,1-dimethylethylamino)-2-pyridazinyl]piperazine]	87 to 90	–	–
CC(C)Nc1cccnc1N1CCN(C(=O)c2cccc3cc[nH]c23)CC1 [Example 128, 1-[Indolyl-7-carbonyl]-4-[3-(1-methylethylamino)-2-pyridinyl]-piperazine]	89 to 98	–	–
CCNc1cccnc1N(C)CCCCCCN(C)C(=O)c1cc2ccccc2[nH]1 [Example 112]	74 to 82	–	–
CC(C)Nc1cccnc1N(C)C1CCN(C(=O)c2cc3ccccc3[nH]2)CC1 [Example 131, 1-(Indolyl-2-carbonyl)-4-(N-methyl-N-(3-(1-methylethylamino)-2-pyridinyl)amino)piperidine]	85 to 97	–	–
O=C(c1cc2ccccc2[nH]1)N1CCN(c2ncccc2NCCF)CC1 [Example 117, 1-[Indolyl-2-carbonyl]-4-[3(2-fluoroethylamino)-2-pyridinyl]piperazine]	92	–	–
CC(C)Nc1cccnc1N1CCN(C(=O)c2cc3ccc(C=O)cc3[nH]2)CC1 [Example 113]	92 to 96	–	–
CCNc1cccnc1N1CCN(C(=O)c2cccc3c2NCC3)CC1 [Example 130]	48 to 59	–	–
CC(C)Nc1cccnc1N1CCN(C(=O)c2cccc3c2NCC3)CC1 [Example 129, 1-[2,3-Didehydroindolyl-7-carbonyl]-4-[3-(1-methylethylamino)-2-pyridinyl]piperazine]	68 to 84	–	–
CC(C)(C)Nc1nccnc1N1CCN(C(=O)c2cc3cc(F)ccc3[nH]2)CC1 [Example 51, 1-[5-Fluoroindolyl-2-carbonyl]-4-[3-(1,1-dimethylethylamino)-2-pyrazinyl]piperazine]	55	–	–
CC(C)Nc1cccnc1N1CCN(C(=O)c2cc3cc(Br)ccc3[nH]2)CC1 [Example 93, 1-[5-Bromoindolyl-2-carbonyl]-4-[3-(1-methylethylamino)-2-pyridinyl]piperazine]	87	–	–
CCNc1cccnc1N1CCN(Cc2cc3cc(OC)ccc3[nH]2)CC1 [Example 80]	61 to 70	–	–
CC(C)Nc1cccnc1OCCOC(=O)c1cc2ccccc2[nH]1 [Example 59, 2-(2-(Indolyl-2-carboxy)ethoxy)-3-(1-methylethylamino)pyridine]	61 to 75	–	–
